ChEMBL document CHEMBL1201862, “PubChem BioAssay data set” (2004)
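Test compounds were applied to cells in 96-well plates for 48 hours at 5 doses. Abbreviation: GI50, concentration required for 50% inhibition of growth.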 Activity calls are given as the source filed them. Cut-off read from the data, not from the text of the source: active = GI50 up to about 1.1 µM and inactive = higher.

Tests used:
Test in all cases: growth of human tumour cells (NCI), 48 h
[1] = system: UO-31
[2] = system: 786-0
[3] = system: K562
[4] = system: NCI/ADR-RES
[5] = system: CCRF-CEM
[6] = system: PC-3
[7] = system: HT-29
[8] = system: TK-10
[9] = system: COLO 205
[10] = system: KM12
[11] = system: A549
[12] = system: SW-620
[13] = system: NCI-H522
[14] = system: SNB-75
[15] = system: RPMI-8226
[16] = system: SK-MEL-28
[17] = system: UACC-62
[18] = system: EKVX
[19] = system: NCI-H226
[20] = system: SK-MEL-5
[21] = system: UACC-257
[22] = system: OVCAR-4
[23] = system: HOP-62
[24] = system: RXF 393
[25] = system: MDA-MB-231
[26] = system: U-251
[27] = system: OVCAR-3
[28] = system: DU-145
[29] = system: Hs-578T
[30] = system: SNB-19
[31] = system: OVCAR-8
[32] = system: HCT-116
[33] = system: HOP-92
[34] = system: CAKI-1
[35] = system: T47D
[36] = system: OVCAR-5
[37] = system: SF-268
[38] = system: MOLT-4
[39] = system: SF-295
[40] = system: M14
[41] = system: Malme-3M
[42] = system: ACHN
[43] = system: SK-MEL-2
[44] = system: IGROV-1
[45] = system: MDA-MB-435
[46] = system: SK-OV-3
[47] = system: HCT-15
[48] = system: SN12C
[49] = system: NCI-H23
[50] = system: BT-549
[51] = system: HCC 2998
[52] = system: A498
[53] = system: MCF7
[54] = system: NCI-H460
[55] = system: HL-60
[56] = system: LOX IMVI
[57] = system: SF-539
[58] = system: SR

Measured: GI50

O=S(=O)(O)c1ccccc1/N=N\c1ccc(/N=N/c2c(O)ccc3ccccc23)c(S(=O)(=O)O)c1
> 100 µM: [47]
inactive: [1] > 100 µM | [2] > 100 µM | [3] > 100 µM | [4] > 100 µM | [5] 83.6 µM | [6] > 100 µM | [7] > 100 µM | [8] > 100 µM | [9] > 100 µM | [10] > 100 µM | [11] > 100 µM | [12] > 100 µM | [13] > 100 µM | [14] > 100 µM | [15] > 100 µM | [16] > 100 µM | [17] > 100 µM | [18] > 100 µM | [19] > 100 µM | [20] > 100 µM | [21] > 100 µM | [22] > 100 µM | [23] > 100 µM | [24] > 100 µM | [25] > 100 µM | [26] > 100 µM | [27] > 100 µM | [28] > 100 µM | [29] > 100 µM | [30] > 100 µM | [31] > 100 µM | [32] > 100 µM | [33] > 100 µM | [34] > 100 µM | [35] > 100 µM | [36] > 100 µM | [37] > 100 µM | [38] > 100 µM | [39] > 100 µM | [40] > 100 µM | [41] 19.4 µM | [42] > 100 µM | [43] > 100 µM | [44] > 100 µM | [45] > 100 µM | [46] > 100 µM | [48] > 100 µM | [49] > 100 µM | [50] > 100 µM

O=C1C(O)=C(Cc2ccccc2)C(=O)c2ccccc21
35.6 µM: [47]
inactive: [1] 41.6 µM | [2] 61.7 µM | [4] 49.5 µM | [6] 54.5 µM | [7] 48.9 µM | [8] > 100 µM | [16] 42.3 µM | [18] 55.1 µM | [20] 18.7 µM | [21] 46.8 µM | [22] 46.6 µM | [25] 91.2 µM | [27] 27.7 µM | [29] 37.3 µM | [32] 50.6 µM | [36] > 100 µM | [39] 45.3 µM | [51] 83.2 µM | [40] 34.8 µM | [43] 42 µM | [46] 63.5 µM | [52] 51.6 µM | [49] 49.1 µM | [50] 70.8 µM

O=Cc1ccc(OC[C@H]2COC(=O)N2)cc1
> 100 µM: [47]
inactive: [1] > 100 µM | [53] > 100 µM | [2] > 100 µM | [3] > 100 µM | [4] > 100 µM | [5] > 100 µM | [6] > 100 µM | [7] > 100 µM | [8] > 100 µM | [9] 72.4 µM | [10] 37.8 µM | [11] 47.9 µM | [12] > 100 µM | [13] 52.4 µM | [14] > 100 µM | [16] > 100 µM | [17] > 100 µM | [18] > 100 µM | [19] > 100 µM | [54] > 100 µM | [20] > 100 µM | [21] > 100 µM | [22] > 100 µM | [23] > 100 µM | [55] > 100 µM | [24] > 100 µM | [25] > 100 µM | [26] > 100 µM | [27] > 100 µM | [28] > 100 µM | [29] > 100 µM | [30] > 100 µM | [31] > 100 µM | [56] > 100 µM | [32] > 100 µM | [34] > 100 µM | [35] > 100 µM | [36] > 100 µM | [37] > 100 µM | [38] > 100 µM | [39] > 100 µM | [51] 56.5 µM | [40] > 100 µM | [41] > 100 µM | [42] > 100 µM | [43] > 100 µM | [44] > 100 µM | [45] > 100 µM | [57] > 100 µM | [46] > 100 µM | [48] > 100 µM | [58] > 100 µM | [49] > 100 µM | [50] > 100 µM
